Experimental data taken from ChEMBL document CHEMBL1141870, “Discovery of potent chromen-4-one inhibitors of the DNA-dependent protein kinase (DNA-PK) using a small-molecule library approach” (J Med Chem, 2005).

Target: DNA-dependent protein kinase catalytic subunit (Homo sapiens, UniProt P78527)
Assay: Inhibition against DNA-dependent protein kinase receptor at 0.5uM

Sequence of DNA-dependent protein kinase catalytic subunit (P78527 whole entry): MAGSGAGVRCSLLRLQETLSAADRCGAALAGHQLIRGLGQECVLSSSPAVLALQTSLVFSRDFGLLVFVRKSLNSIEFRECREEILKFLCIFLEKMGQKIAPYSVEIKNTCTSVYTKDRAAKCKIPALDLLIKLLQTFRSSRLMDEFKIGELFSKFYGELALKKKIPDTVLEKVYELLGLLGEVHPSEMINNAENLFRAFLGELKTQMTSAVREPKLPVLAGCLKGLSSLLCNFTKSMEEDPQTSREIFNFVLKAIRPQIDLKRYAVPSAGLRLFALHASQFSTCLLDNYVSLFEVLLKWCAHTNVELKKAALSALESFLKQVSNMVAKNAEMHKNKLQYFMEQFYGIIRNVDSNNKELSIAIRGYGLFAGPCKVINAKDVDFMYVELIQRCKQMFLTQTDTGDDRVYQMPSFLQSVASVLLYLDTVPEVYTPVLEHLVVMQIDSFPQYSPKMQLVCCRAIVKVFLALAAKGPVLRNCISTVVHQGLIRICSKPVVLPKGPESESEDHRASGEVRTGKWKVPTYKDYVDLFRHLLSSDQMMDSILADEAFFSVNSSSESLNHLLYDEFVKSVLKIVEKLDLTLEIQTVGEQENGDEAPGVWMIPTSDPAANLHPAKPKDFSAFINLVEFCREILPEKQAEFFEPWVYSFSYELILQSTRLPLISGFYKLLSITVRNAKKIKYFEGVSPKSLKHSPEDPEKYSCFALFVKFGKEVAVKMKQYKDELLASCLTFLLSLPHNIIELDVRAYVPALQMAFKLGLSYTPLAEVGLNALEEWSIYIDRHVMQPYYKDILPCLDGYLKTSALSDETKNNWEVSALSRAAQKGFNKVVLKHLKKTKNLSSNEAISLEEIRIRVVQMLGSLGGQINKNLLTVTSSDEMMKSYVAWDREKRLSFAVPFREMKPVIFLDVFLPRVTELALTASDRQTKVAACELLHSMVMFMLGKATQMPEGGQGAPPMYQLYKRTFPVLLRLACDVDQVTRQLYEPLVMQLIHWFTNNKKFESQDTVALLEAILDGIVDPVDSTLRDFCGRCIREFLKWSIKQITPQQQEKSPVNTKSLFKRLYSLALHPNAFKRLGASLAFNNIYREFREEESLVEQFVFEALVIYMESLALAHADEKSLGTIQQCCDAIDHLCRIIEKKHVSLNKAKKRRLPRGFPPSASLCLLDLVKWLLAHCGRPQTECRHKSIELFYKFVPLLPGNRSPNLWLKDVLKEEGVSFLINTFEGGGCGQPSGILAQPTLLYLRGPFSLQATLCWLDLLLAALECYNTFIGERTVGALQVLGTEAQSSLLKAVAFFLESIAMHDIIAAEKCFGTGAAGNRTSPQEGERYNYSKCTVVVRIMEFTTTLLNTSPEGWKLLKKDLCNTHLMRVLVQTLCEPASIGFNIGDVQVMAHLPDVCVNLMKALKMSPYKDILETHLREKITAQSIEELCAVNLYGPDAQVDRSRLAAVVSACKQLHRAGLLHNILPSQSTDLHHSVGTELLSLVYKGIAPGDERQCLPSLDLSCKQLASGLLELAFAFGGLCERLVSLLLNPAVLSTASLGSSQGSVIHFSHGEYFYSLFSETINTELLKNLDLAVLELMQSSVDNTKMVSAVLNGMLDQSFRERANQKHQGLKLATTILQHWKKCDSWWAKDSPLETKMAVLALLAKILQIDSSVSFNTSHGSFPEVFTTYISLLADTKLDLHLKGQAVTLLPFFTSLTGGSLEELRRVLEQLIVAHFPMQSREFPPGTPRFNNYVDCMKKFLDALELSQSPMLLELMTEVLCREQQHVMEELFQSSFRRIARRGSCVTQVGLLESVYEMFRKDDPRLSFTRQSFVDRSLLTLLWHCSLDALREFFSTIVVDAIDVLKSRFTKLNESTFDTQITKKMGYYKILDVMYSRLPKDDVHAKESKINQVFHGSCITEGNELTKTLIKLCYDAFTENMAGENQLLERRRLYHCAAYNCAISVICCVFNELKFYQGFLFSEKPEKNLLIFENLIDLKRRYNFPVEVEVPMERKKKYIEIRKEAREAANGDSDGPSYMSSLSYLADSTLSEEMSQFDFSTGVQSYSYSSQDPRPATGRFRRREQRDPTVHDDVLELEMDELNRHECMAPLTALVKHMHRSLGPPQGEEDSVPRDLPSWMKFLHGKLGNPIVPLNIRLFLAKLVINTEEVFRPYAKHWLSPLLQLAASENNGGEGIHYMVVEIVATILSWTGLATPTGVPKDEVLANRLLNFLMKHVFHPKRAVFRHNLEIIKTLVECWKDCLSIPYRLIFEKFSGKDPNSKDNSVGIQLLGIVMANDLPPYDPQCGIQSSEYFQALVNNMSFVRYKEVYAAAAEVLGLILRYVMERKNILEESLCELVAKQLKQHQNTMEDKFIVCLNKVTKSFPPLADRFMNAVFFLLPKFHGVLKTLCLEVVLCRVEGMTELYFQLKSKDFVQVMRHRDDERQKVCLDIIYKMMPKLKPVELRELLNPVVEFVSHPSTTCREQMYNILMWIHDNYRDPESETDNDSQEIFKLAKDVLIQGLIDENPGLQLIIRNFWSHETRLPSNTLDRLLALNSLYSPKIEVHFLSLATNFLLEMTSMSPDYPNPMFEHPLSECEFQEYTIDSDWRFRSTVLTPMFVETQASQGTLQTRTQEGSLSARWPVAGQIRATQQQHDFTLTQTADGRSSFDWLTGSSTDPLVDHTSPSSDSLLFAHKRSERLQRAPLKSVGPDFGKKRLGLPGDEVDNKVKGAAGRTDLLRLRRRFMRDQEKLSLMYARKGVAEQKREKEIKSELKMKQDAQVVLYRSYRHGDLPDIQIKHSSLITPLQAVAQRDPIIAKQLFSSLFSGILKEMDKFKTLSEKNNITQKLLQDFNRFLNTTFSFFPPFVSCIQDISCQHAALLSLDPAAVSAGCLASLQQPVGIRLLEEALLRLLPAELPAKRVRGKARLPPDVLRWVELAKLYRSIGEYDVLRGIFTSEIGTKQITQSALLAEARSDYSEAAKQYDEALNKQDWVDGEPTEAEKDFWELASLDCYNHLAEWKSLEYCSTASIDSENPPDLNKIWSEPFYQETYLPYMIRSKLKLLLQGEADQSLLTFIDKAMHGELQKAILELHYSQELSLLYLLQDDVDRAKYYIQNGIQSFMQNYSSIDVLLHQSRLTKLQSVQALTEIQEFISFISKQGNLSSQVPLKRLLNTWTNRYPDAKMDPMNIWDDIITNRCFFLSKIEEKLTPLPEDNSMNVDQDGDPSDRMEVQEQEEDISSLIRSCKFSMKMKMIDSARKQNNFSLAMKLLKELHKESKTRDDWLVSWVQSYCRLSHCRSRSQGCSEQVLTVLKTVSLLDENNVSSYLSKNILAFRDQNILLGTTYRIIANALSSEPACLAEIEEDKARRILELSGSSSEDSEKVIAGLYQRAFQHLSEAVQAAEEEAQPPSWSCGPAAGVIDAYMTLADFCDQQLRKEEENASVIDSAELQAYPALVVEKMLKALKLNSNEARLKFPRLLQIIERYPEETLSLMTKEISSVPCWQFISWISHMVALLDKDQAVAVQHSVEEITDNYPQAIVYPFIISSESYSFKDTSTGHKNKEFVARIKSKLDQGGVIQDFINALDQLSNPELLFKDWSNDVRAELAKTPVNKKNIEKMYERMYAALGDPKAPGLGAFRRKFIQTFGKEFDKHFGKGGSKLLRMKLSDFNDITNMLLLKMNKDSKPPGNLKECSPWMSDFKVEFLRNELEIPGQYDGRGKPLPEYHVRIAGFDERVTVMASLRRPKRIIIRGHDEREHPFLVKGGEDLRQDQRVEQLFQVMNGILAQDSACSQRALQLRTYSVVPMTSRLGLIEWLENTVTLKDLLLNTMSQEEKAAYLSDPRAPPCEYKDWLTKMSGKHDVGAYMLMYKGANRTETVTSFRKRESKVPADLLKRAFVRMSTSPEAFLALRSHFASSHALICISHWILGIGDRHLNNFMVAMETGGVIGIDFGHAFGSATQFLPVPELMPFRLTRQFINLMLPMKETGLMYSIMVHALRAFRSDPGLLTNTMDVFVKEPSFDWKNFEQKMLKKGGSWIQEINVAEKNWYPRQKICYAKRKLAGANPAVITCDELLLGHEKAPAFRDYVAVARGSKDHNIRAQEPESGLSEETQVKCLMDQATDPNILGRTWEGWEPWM

Row | SMILES | inhibition [%]
1 | CC(=O)c1cccc(-c2ccc3oc(N4CCOCC4)cc(=O)c3c2)c1 | 46
2 | O=c1cc(N2CCOCC2)oc2cc(-c3ccccc3-c3ccccc3)ccc12 | 25
3 | CC(C)(C)c1ccccc1-c1ccc2c(=O)cc(N3CCOCC3)oc2c1 | 20
4 | COC(=O)/C=C\c1ccccc1-c1ccc2oc(N3CCOCC3)cc(=O)c2c1 | 63
5 | O=c1cc(N2CCOCC2)oc2ccc(-c3ccccc3C(F)(F)F)cc12 | 7
6 | CCOC(=O)c1cccc(-c2ccc3c(=O)cc(N4CCOCC4)oc3c2)c1 | 26
7 | CC(=O)Nc1ccccc1-c1ccc2oc(N3CCOCC3)cc(=O)c2c1 | 60
8 | O=c1cc(N2CCOCC2)oc2cc(-c3cccc(O)c3)ccc12 | 33
9 | O=c1cc(N2CCOCC2)oc2ccc(-c3cc(C(F)(F)F)cc(C(F)(F)F)c3)cc12 | 13
10 | O=c1cc(N2CCOCC2)oc2ccc(-c3cccs3)cc12 | 43
11 | O=c1cc(N2CCOCC2)oc2ccc(-c3cccc(O)c3)cc12 | 56
12 | Nc1ccc(-c2ccc3c(=O)cc(N4CCOCC4)oc3c2)cc1 | 31
13 | O=c1cc(N2CCOCC2)oc2cc(-c3ccc(O)cc3)ccc12 | 22
14 | O=c1cc(N2CCOCC2)oc2ccc(-c3ccc4[nH]ccc4c3)cc12 | 17
15 | N#Cc1ccc(-c2ccc3oc(N4CCOCC4)cc(=O)c3c2)cc1 | 37
16 | O=c1cc(N2CCOCC2)oc2cc(-c3ccccc3CO)ccc12 | 15
17 | O=c1cc(N2CCOCC2)oc2ccc(-c3ccc(OC(F)(F)F)cc3)cc12 | 19
18 | CC(=O)Nc1cccc(-c2ccc3c(=O)cc(N4CCOCC4)oc3c2)c1 | 28
19 | CC(=O)Nc1ccccc1-c1ccc2c(=O)cc(N3CCOCC3)oc2c1 | 21
20 | O=c1cc(N2CCOCC2)oc2ccc(-c3ccc4ncccc4c3)cc12 | 13
21 | O=c1cc(N2CCOCC2)oc2ccc(-c3ccc4ccccc4c3)cc12 | 4
22 | O=c1cc(N2CCOCC2)oc2ccc(-c3csc4ccccc34)cc12 | 50
23 | O=c1cc(N2CCOCC2)oc2ccc(-c3ccsc3)cc12 | 42
24 | N#Cc1ccc(-c2ccc3c(=O)cc(N4CCOCC4)oc3c2)cc1 | 29
25 | O=c1cc(N2CCOCC2)oc2ccc(/C=C/c3ccccc3)cc12 | 6
26 | COC(=O)c1ccccc1-c1ccc2c(=O)cc(N3CCOCC3)oc2c1 | 30
